Patent US20180002288A1, “USE OF PICOLINAMIDES AS FUNGICIDES” (DOW AGROSCIENCES LLC, priority 2014, published 2018)
Like-named read-outs stand apart in the source and are kept apart here.

Columns and labels:
[1] = tested on: Zymoseptoria tritici; assay: Leaf Blotch of Wheat fungicidal activity (SEPTTR); type: in vivo; details: Low Volume Cereal Activity at 121.5 g/Ha
[2] = tested on: Puccinia triticina; assay: Wheat Brown Rust fungicidal activity (PUCCRT); type: in vivo; details: Low Volume Cereal Activity at 121.5 g/Ha
[3] = tested on: Venturia inaequalis; assay: Apple Scab fungicidal activity (VENTIN); type: in vivo; details: 24 h, high volume, 1 Day Protectant, read-out: VENTIN % Control rating
Procedure: All fungicides were evaluated using the aforementioned method for their activity vs. all target diseases, unless stated otherwise. Wheat leaf blotch and brown rust activity were also evaluated using track spray applications, in which case the fungicides were formulated as EC formulations, containing 0.1% Trycol 5941 in the spray solutions. Wheat plants (variety Yuma) were grown from seed in a greenhouse in 50% mineral soil/50% soil-less Metro mix until the first leaf was fully emerged, with 7-10 seedlings per pot. These plants were inoculated with an aqueous spore suspension of Zymoseptoria tritici either prior to or after fungicide treatments. After inoculation the plants were kept in 100% relative humidity (one day in a dark dew chamber followed by two to three days in a lighted dew chamber at 20° C.) to permit spores to germinate and infect the leaf. The plants were then transferred to a greenhouse set at 20° C. for disease to develop. When disease symptoms were fully expressed on the 1st leaves of untreated plants, infection levels were assessed on a scale of 0 to 100 percent disease severity. Percent disease control was calculated using the ratio of disease severity on treated plants relative to untreated plants. […] Seedlings with two expanding young leaves at the top (older leaves at bottom of the plants were trimmed) were used in the test. Plants were inoculated with a spore suspension of Venturia inaequalis 24 hr after fungicide treatment and kept in a 22° C. dew chamber with 100% relative humidity for 48 hr, and then moved to a greenhouse set at 20° C. for disease to develop. Fungicide formulation, application and disease assessment on the sprayed leaves followed the procedures as described in the Example A.

[4] = tested on: Cercospora beticola; assay: Leaf Spot of Sugar Beets fungicidal activity (CERCBE); type: in vivo; details: 24 h, sugar beet, high volume, 1 Day Protectant, read-out: CERCBE % Control rating
Procedure: All fungicides were evaluated using the aforementioned method for their activity vs. all target diseases, unless stated otherwise. Wheat leaf blotch and brown rust activity were also evaluated using track spray applications, in which case the fungicides were formulated as EC formulations, containing 0.1% Trycol 5941 in the spray solutions. Wheat plants (variety Yuma) were grown from seed in a greenhouse in 50% mineral soil/50% soil-less Metro mix until the first leaf was fully emerged, with 7-10 seedlings per pot. These plants were inoculated with an aqueous spore suspension of Zymoseptoria tritici either prior to or after fungicide treatments. After inoculation the plants were kept in 100% relative humidity (one day in a dark dew chamber followed by two to three days in a lighted dew chamber at 20° C.) to permit spores to germinate and infect the leaf. The plants were then transferred to a greenhouse set at 20° C. for disease to develop. When disease symptoms were fully expressed on the 1st leaves of untreated plants, infection levels were assessed on a scale of 0 to 100 percent disease severity. Percent disease control was calculated using the ratio of disease severity on treated plants relative to untreated plants. Sugar beet plants (variety HH88) were grown in soil-less Metro mix and trimmed regularly to maintain a uniform plant size prior to test. Plants were inoculated with a spore suspension 24 hr after fungicide treatments. Inoculated plants were kept in a dew chamber at 22° C. for 48 hr then incubated in a greenhouse set at 24° C. under a clear plastic hood with bottom ventilation until disease symptoms were fully expressed. Fungicide formulation, application and disease assessment on the sprayed leaves followed the procedures as described in the Example A.

[5] = tested on: Alternaria solani; assay: Tomato Early Blight fungicidal activity (ALTESO); type: in vivo; details: 24 h, high volume, 1 Day Protectant, read-out: ALTESO % Control rating
Procedure: All fungicides were evaluated using the aforementioned method for their activity vs. all target diseases, unless stated otherwise. Wheat leaf blotch and brown rust activity were also evaluated using track spray applications, in which case the fungicides were formulated as EC formulations, containing 0.1% Trycol 5941 in the spray solutions. Wheat plants (variety Yuma) were grown from seed in a greenhouse in 50% mineral soil/50% soil-less Metro mix until the first leaf was fully emerged, with 7-10 seedlings per pot. These plants were inoculated with an aqueous spore suspension of Zymoseptoria tritici either prior to or after fungicide treatments. After inoculation the plants were kept in 100% relative humidity (one day in a dark dew chamber followed by two to three days in a lighted dew chamber at 20° C.) to permit spores to germinate and infect the leaf. The plants were then transferred to a greenhouse set at 20° C. for disease to develop. When disease symptoms were fully expressed on the 1st leaves of untreated plants, infection levels were assessed on a scale of 0 to 100 percent disease severity. Percent disease control was calculated using the ratio of disease severity on treated plants relative to untreated plants. Tomato plants (variety Outdoor Girl) were propagated in soil-less Metro mix, with each pot having one plant, and used when 12 to 14 days old. Test plants were inoculated with an aqueous spore suspension of Alternaria solani 24 hr after fungicide treatments. After inoculation the plants were kept in a dew room at 22° C. with 100% relative humidity for 48 hr to permit spores to germinate and infect the leaf. The plants were then transferred to a growth room at 22° C. for disease to develop. Fungicide formulation, application and disease assessment on the sprayed leaves followed the procedures as described in the Example A.

[6] = tested on: Phakopsora pachyrhizi; assay: Asian Soybean Rust fungicidal activity (PHAKPA); details: Phakopsora pachyrhizi, in Glycine max
[7] = 24 h, 1 Day Protectant, read-out: SEPTTR 1DP (Wheat Leaf Blotch, 1 Day Protectant)
[8] = 72 h, 3 Day Curative, read-out: SEPTTR 3DC (Wheat Leaf Blotch, 3 Day Curative)
[9] = 24 h, 1 Day Protectant, read-out: PUCCRT 1DP (Wheat Brown Rust, 1 Day Protectant)
[10] = 72 h, 3 Day Curative, read-out: PUCCRT 3DC (Wheat Brown Rust, 3 Day Curative)
[11] = 24 h, read-out: PHAKPA 1DP % Control rating, soybean, high volume, 25 ppm, 1 Day Protectant
[12] = 72 h, read-out: PHAKPA 3DC % Control rating, soybean, high volume, 25 ppm, 3 Day Curative

SMILES | pest or weed control at 121.5 g/ha [1, 7] | pest or weed control at 121.5 g/ha [1, 8] | pest or weed control at 121.5 g/ha [2, 9] | pest or weed control at 121.5 g/ha [2, 10] | pest or weed control at 100 ppm [3] | pest or weed control at 100 ppm [4] | pest or weed control at 100 ppm [5] | pest or weed control at 25 ppm [6, 11] | pest or weed control at 25 ppm [6, 12]
COc1ccnc(C(=O)N[C@@H](C)C(=O)O[C@H](C)[C@@H](Oc2ccccc2)c2ccccc2)c1OCOC(C)=O [Example 185] | > 80% | > 80% | > 80% | > 80% | < 80% | < 80% | < 80% | < 80% | < 0%
COc1ccnc(C(=O)N[C@H](C)C(=O)O[C@H](C)[C@@H](Oc2ccccc2)c2ccccc2)c1OCOC(C)=O [Example 186] | < 80% | < 80% | < 0% | < 0% | < 80% | < 80% | < 80% | < 0% | < 0%
